Laboratory results reported in US20250197372A1 (priority 2020, published 2025).
pIC50: −log10 of the molar value.

Biological target: T1, recombinant alpha-glucosidase I (human full-length glucosidase I, Glu 1) (Homo sapiens, UniProt Q13724)
T1 construct: 6-His (C); made in house; host or cells: HEK-293T cells transduced with BacMam virus (virus raised in Sf9)
T1 sequence (Q13724 1-837): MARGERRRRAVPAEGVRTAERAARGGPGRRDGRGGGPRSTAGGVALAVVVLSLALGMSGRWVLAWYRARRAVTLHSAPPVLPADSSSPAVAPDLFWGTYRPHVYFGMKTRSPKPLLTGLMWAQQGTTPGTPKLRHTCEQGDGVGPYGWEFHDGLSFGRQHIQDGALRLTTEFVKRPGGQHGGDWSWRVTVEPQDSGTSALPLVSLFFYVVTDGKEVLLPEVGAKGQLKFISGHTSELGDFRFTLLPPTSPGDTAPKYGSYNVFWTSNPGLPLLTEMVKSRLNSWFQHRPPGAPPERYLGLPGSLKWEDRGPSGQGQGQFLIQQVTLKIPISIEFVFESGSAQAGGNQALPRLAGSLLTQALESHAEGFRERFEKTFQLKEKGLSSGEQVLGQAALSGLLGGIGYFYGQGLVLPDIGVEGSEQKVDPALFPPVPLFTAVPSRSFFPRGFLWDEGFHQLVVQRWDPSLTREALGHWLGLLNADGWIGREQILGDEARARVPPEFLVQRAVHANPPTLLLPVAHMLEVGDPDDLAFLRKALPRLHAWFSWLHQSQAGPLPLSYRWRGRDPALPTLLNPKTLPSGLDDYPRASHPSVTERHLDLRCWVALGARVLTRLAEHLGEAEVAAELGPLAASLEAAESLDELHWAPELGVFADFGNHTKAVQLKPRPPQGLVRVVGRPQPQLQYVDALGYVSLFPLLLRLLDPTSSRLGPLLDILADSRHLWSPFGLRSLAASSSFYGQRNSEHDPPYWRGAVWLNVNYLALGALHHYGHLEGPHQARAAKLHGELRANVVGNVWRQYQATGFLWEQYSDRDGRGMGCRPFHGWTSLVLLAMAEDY
Test: Alpha-glucosidase I assay (Amplex Red glucose detection, synthetic trisaccharide substrate)
Assay type: biochemical
Details: Glucosidase 1; read-out: Glu 1 IC50
Method in brief: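 Compound dilution series incubated 60 min at 37° C with recombinant His-tagged human glucosidase I ([…]), after which trisaccharide substrate analog was added for 90 min at 37° C. Reaction quenched with 1.5M Tris pH 8; D-glucose detected by Amplex Red fluorescence, 560/590 nm. 4-PL curve fit of percent inhibition gave IC50.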

Row | SMILES | pIC50
1 | [N-]=[N+]=Nc1ccc(N2CC(OCCN3C[C@H](O)[C@@H](O)[C@H](O)[C@H]3CO)C2)c([N+](=O)[O-])c1 [Compound 1252, (2R,3R,4R,5S)-1-(2-{[1-(4-azido-2-nitrophenyl)azetidin-3-yl]oxy}ethyl)-2-(hydroxymethyl)piperidine-3,4,5-triol] | 5.87
2 | Cc1cc(NCc2cccc(CN3C[C@H](O)[C@@H](O)[C@H](O)[C@H]3CO)n2)cc(-c2ncccn2)c1 [Compound 1322, (2R,3R,4R,5S)-2-(hydroxymethyl)-1-{[6-({[3-methyl-5-(pyrimidin-2-yl)phenyl]amino}methyl)pyridin-2-yl]methyl}piperidine-3,4,5-triol] | 5.51
3 | OC[C@@H]1[C@@H](O)[C@H](O)[C@@H](O)CN1CCCCCCNc1cc(Cl)cc(-c2ncccn2)c1 [Compound 1212, (2R,3R,4R,5S)-1-(6-{[3-chloro-5-(pyrimidin-2-yl)phenyl]amino}hexyl)-2-(hydroxymethyl)piperidine-3,4,5-triol] | 6.98
4 | Cc1cc(NCc2cccc(CN3C[C@H](O)[C@@H](O)[C@H](O)[C@H]3CO)n2)cc(-c2ccco2)c1 [Compound 1334, (2R,3R,4R,5S)-1-{[6-({[3-(furan-2-yl)-5-methylphenyl]amino}methyl)pyridin-2-yl]methyl}-2-(hydroxymethyl)piperidine-3,4,5-triol] | 5.97
5 | NS(=O)(=O)c1cc(-c2ncccn2)ccc1NCCCCCCN1C[C@H](O)[C@@H](O)[C@H](O)[C@H]1CO [Compound 1265, 5-(pyrimidin-2-yl)-2-({6-[(2R,3R,4R,5S)-3,4,5-trihydroxy-2-(hydroxymethyl)piperidin-1-yl]hexyl}amino)benzene-1-sulfonamide] | 6.55
6 | O=[N+]([O-])c1cc(Br)ccc1NCc1cccc(CN2C[C@H](O)[C@@H](O)[C@H](O)[C@H]2CO)c1 [Compound 1029, (2R,3R,4R,5S)-1-[(3-{[(4-bromo-2-nitrophenyl)-amino]methyl}phenyl)methyl]-2-(hydroxymethyl)piperidine-3,4,5-triol] | 8.10
7 | Cc1cc(NCc2cnc(CN3C[C@H](O)[C@@H](O)[C@H](O)[C@H]3CO)cn2)cc(N2CCOCC2)c1 [Compound 1332, (2R,3R,4R,5S)-2-(hydroxymethyl)-1-{[5-({[3-methyl-5-(morpholin-4-yl)phenyl]amino}methyl)pyrazin-2-yl]methyl}piperidine-3,4,5-triol] | 5.55
8 | NC(=O)c1cc(-c2ncccn2)ccc1NCCCCCCN1C[C@H](O)[C@@H](O)[C@H](O)[C@H]1CO [Compound 1266, 5-(pyrimidin-2-yl)-2-({6-[(2R,3R,4R,5S)-3,4,5-trihydroxy-2-(hydroxymethyl)piperidin-1-yl]hexyl}amino)benzamide] | 6.74
9 | Cc1cc(NCc2ccc(CN3C[C@H](O)[C@@H](O)[C@H](O)[C@H]3CO)cc2)cc(-n2nccn2)c1 [Compound 1316, (2R,3R,4R,5S)-2-(hydroxymethyl)-1-{[4-({[3-methyl-5-(2H-1,2,3-triazol-2-yl)phenyl]amino}methyl)phenyl]methyl}piperidine-3,4,5-triol] | 7.80
10 | CN(C)Cc1ccc(NCCCCCCN2C[C@H](O)[C@@H](O)[C@H](O)[C@H]2CO)c(C(F)(F)F)c1 [Compound 1259, (2R,3R,4R,5S)-1-[6-({4-[(dimethylamino)methyl]-2-(trifluoromethyl)phenyl}amino)hexyl]-2-(hydroxymethyl)piperidine-3,4,5-triol] | 6.48
11 | OC[C@@H]1[C@@H](O)[C@H](O)[C@@H](O)CN1CCCCCCNc1ccc(-c2ncccn2)cc1Cl [Compound 1228, (2R,3R,4R,5S)-1-(6-{[2-chloro-4-(pyrimidin-2-yl)phenyl]amino}hexyl)-2-(hydroxymethyl)piperidine-3,4,5-triol] | 7.72
12 | N#Cc1ccc(NCCCCCCN2C[C@H](O)[C@@H](O)[C@H](O)[C@H]2CO)c([N+](=O)[O-])c1 [Compound 1304, 3-nitro-4-({6-[(2R,3R,4R,5S)-3,4,5-trihydroxy-2-(hydroxymethyl)piperidin-1-yl]hexyl}amino)benzonitrile] | 6.75
13 | COc1cc(NCCCCCCN2C[C@H](O)[C@@H](O)[C@H](O)[C@H]2CO)cc(-c2ncccn2)c1 [Compound 1217, (2R,3R,4R,5S)-2-(hydroxymethyl)-1-(6-{[3-methoxy-5-(pyrimidin-2-yl)phenyl]amino}hexyl)piperidine-3,4,5-triol] | 6.89
14 | Cc1cc(NCc2cccc(CN3C[C@H](O)[C@@H](O)[C@H](O)[C@H]3CO)c2)cc(N2CCOCC2)c1 [Compound 1031, (2R,3R,4R,5S)-2-(hydroxymethyl)-1-{[3-({[3-methyl-5-(morpholin-4-yl)phenyl]amino}methyl)phenyl]methyl}piperidine-3,4,5-triol] | 7.03
15 | Cc1cc(NCc2ccc(CN3C[C@H](O)[C@@H](O)[C@H](O)[C@H]3CO)cc2)cc(-c2ncco2)c1 [Compound 1315, (2R,3R,4R,5S)-2-(hydroxymethyl)-1-{[4-({[3-methyl-5-(1,3-oxazol-2-yl)phenyl]amino}methyl)phenyl]methyl}piperidine-3,4,5-triol] | 7.40
16 | [N-]=[N+]=Nc1ccc(NCCN(CCC(N)=O)CCN2C[C@H](O)[C@@H](O)[C@H](O)[C@H]2CO)c([N+](=O)[O-])c1 [Compound 1235] | 5.09
17 | [N-]=[N+]=Nc1ccc(NCCc2ccccc2CCN2C[C@H](O)[C@@H](O)[C@H](O)[C@H]2CO)c([N+](=O)[O-])c1 [Compound 1249] | 5.61
18 | COc1ccc(CCCCCN2C[C@H](O)[C@@H](O)[C@H](O)[C@H]2CO)cc1 [Compound 1310, (2R,3R,4R,5S)-2-(hydroxymethyl)-1-[5-(4-methoxyphenyl)pentyl]piperidine-3,4,5-triol] | 6.17
19 | N#Cc1ccc(F)cc1NCCCCCCN1C[C@H](O)[C@@H](O)[C@H](O)[C@H]1CO [Compound 1251, 4-fluoro-2-({6-[(2R,3R,4R,5S)-3,4,5-trihydroxy-2-(hydroxymethyl)piperidin-1-yl]hexyl}amino)benzonitrile] | 6.65
20 | [N-]=[N+]=Nc1ccc(NCCCCCCN2C[C@H](O)[C@@H](O)[C@H](O)[C@H]2CO)c(C(=O)O)c1 [Compound 1297, 5-azido-2-({6-[(2R,3R,4R,5S)-3,4,5-trihydroxy-2-(hydroxymethyl)piperidin-1-yl]hexyl}amino)benzoic acid] | 5.89
21 | CN(C)Cc1ccc(NCCCCCCN2C[C@H](O)[C@@H](O)[C@H](O)[C@H]2CO)c(C(=O)O)c1 [Compound 1245, 5-[(dimethylamino)methyl]-2-({6-[(2R,3R,4R,5S)-3,4,5-trihydroxy-2-(hydroxymethyl)piperidin-1-yl]hexyl}amino)benzoic acid] | 6.53
22 | N#Cc1cc(Br)cc(NCc2ccc(CN3C[C@H](O)[C@@H](O)[C@H](O)[C@H]3CO)cc2)c1 [Compound 1026, 3-bromo-5-{[(4-{[(2R,3R,4R,5S)-3,4,5-trihydroxy-2-(hydroxymethyl)piperidin-1-yl]methyl}phenyl)methyl]amino}benzonitrile] | 8.15
23 | [N-]=[N+]=Nc1ccc(NCCNC(=O)NCCN2C[C@H](O)[C@@H](O)[C@H](O)[C@H]2CO)c([N+](=O)[O-])c1 [Compound 1276, 1-{2-[(4-azido-2-nitrophenyl)amino]ethyl}-3-{2-[(2R,3R,4R,5S)-3,4,5-trihydroxy-2-(hydroxymethyl)piperidin-1-yl]ethyl}urea] | 5.61
